Read-outs that look alike come from different tables or passages of the source.
Key:
MGLL = target: T1, MGLL (Mus musculus, UniProt O35678); assay: In vitro competitive activity-based protein profiling, mouse brain proteome; type: biochemical
T1 construct: Brain; from tissue; host or cells: mouse brain proteome
T1 sequence (O35678 1-303): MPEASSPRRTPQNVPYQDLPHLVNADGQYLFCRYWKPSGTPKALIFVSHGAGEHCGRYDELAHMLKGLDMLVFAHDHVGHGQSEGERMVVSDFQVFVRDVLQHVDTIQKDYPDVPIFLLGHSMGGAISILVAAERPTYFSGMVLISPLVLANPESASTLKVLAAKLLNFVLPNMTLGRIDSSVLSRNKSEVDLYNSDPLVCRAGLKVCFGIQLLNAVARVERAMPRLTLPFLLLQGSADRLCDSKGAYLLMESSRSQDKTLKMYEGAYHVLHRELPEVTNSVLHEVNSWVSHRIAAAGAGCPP
Method: [Worded in the source for another species; this species is reported under the same test.] (§1) Proteomes (human prefrontal cortex or cell membrane fractions) (50 μL, 1.0 mg/mL total protein concentration) were preincubated with varying concentrations of inhibitors at 37° C. After 30 min, FP—Rh or HT-01 (1.0 μL, 50 μM in DMSO) was added and the mixture was incubated for another 30 min at room temperature. Reactions were quenched with SDS loading buffer (15 μL-4×) and run on SDS-PAGE.

MAGL [1] = target: T2, MAGL (Homo sapiens, UniProt Q99685); assay: In vitro competitive activity-based protein profiling (gel-based, FP-Rh or HT-01 probe); type: biochemical
T2 construct: Proteomes (human prefrontal cortex or cell membrane fractions); from tissue
T2 sequence (Q99685 1-303): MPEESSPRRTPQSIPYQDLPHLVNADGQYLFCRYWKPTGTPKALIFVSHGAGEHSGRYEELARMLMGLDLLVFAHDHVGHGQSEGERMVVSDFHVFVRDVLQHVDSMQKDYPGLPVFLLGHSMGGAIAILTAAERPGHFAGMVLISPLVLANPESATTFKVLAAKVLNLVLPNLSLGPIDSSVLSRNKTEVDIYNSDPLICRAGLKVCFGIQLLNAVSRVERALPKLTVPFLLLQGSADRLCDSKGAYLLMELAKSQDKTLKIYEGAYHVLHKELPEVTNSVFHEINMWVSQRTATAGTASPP
In short: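 Readout is SDS-PAGE of probe-labelled proteome after FP-Rh or HT-01 (1.0 μL, 50 μM stock) labelling for 30 min at room temperature. Beforehand, inhibitors at varying concentrations were preincubated 30 min at 37° C with human prefrontal cortex or cell membrane fractions at 1.0 mg/mL total protein.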

ABHD6 = target: T3, ABHD6 (Mus musculus, UniProt Q8R2Y0); assay: In vitro competitive activity-based protein profiling, mouse brain proteome, ABHD6; type: biochemical; conditions: mouse
T3 construct: Brain; from tissue; host or cells: mouse brain proteome
T3 sequence (Q8R2Y0 1-336): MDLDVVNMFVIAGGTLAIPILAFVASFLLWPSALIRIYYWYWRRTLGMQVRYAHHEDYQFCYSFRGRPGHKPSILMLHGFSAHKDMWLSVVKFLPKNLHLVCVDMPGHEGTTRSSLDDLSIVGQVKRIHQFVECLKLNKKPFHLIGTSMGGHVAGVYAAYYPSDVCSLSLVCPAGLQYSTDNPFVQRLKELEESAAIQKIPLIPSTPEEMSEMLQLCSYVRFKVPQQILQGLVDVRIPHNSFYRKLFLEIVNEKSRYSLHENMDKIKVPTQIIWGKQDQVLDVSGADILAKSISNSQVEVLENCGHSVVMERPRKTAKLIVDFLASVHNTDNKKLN
Method: [Worded in the source for another target; this target is reported under the same test.] as §1

MAGL [2] = target: T4, MAGL (Mus musculus, UniProt O35678); assay: Mouse brain proteomes from inhibitor treated mice (oral gavage, brain proteomes analyzed 4 h after administration); type: in vivo, mouse (C57Bl/6J); conditions: brain proteome 4 h after administration, read-out: % Inh 5 mg/kg MGLL (Mouse)
T4 construct: from tissue; host or cells: brain of wild-type C57Bl/6J mice
T4 sequence (O35678 1-303): T1 sequence (O35678 1-303)
In short: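 Wild-type C57Bl/6J mice dosed orally in polyethylene glycol vehicle; brains removed 4 h post-dose and brain proteomes prepared and analysed for MAGL and serine hydrolase activity by previously established methods.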

[3] = PC3 proteome, read-out: IC50 MGLL PC3 (Human)
[4] = PFC (prefrontal cortex) proteome, read-out: IC50 MGLL PFC (Human)

Row | IC50 (MGLL) | IC50 (MAGL [1]; [3]) | % Inh MGLL PFC (Human, μM) (MAGL [1]; PFC (prefrontal cortex) proteome) | IC50 (MAGL [1]; [4]) | IC50 (ABHD6) | inhibition at 5 mg/kg (MAGL [2]) | SMILES
1 | < 100 nM | < 100 nM | ### (### is ≥ 75%) | < 100 nM | > 1000 nM | ≤ 25% | O=C(O)CN1CCN(c2cc(C(F)(F)F)ccc2CN2CCCC23CCN(C(=O)OC(C(F)(F)F)C(F)(F)F)CC3)CC1 [Example 3, 2-(4-(2-((8-(((1,1,1,3,3,3-Hexafluoropropan-2-yl)oxy)carbonyl)-1,8-diazaspiro[4.5]decan-1-yl)methyl)-5-(trifluoromethyl)phenyl)piperazin-1-yl)acetic acid]
2 | < 100 nM | < 100 nM |  | < 100 nM | > 1000 nM | ≥ 75% | O=C(OC(C(F)(F)F)C(F)(F)F)N1CCC2(CCCN2Cc2cc(C(F)(F)F)cc(C3(C(=O)O)CCCC3)c2)CC1 [Example 8, 1-(3-((8-(((1,1,1,3,3,3-Hexafluoropropan-2-yl)oxy)carbonyl)-1,8-diazaspiro[4.5]decan-1-yl)methyl)-5-(trifluoromethyl)phenyl)cyclopentane-1-carboxylic acid]
3 | < 100 nM | < 100 nM |  | < 100 nM | > 1000 nM | ≥ 75% | O=C(O)C1CN(c2cc(C(F)(F)F)ccc2CN2CC3(CCN(C(=O)OC(C(F)(F)F)C(F)(F)F)CC3)C2)CCO1 (stereo not drawn) [Example 20, 4-(2-((7-(((1,1,1,3,3,3-Hexafluoropropan-2-yl)oxy)carbonyl)-2,7-diazaspiro[3.5]nonan-2-yl)methyl)-5-(trifluoromethyl)phenyl)morpholine-2-carboxylic acid]
4 | < 100 nM | < 100 nM |  | < 100 nM | 100 to 1000 nM | 25 to 75% | O=C(O)C1CCN(c2cc(CN3CC4(CCN(C(=O)OC(C(F)(F)F)C(F)(F)F)CC4)C3)cc(C(F)(F)F)c2)CC1 [Example 99, 1-(3-((7-(((1,1,1,3,3,3-Hexafluoropropan-2-yl)oxy)carbonyl)-2,7-diazaspiro[3.5]nonan-2-yl)methyl)-5-(trifluoromethyl)phenyl)piperidine-4-carboxylic acid]
5 | < 100 nM |  |  |  | > 1000 nM | ≤ 25% | CCN1CC2(CCN(c3cc(C(F)(F)F)ccc3CN3CCN(C(=O)OC(C(F)(F)F)C(F)(F)F)CC3)C2)C1 [Example 184, 1,1,1,3,3,3-Hexafluoropropan-2-yl 4-(2-(2-ethyl-2,6-diazaspiro[3.4]octan-6-yl)-4-(trifluoromethyl)benzyl)piperazine-1-carboxylate]
6 | < 100 nM |  |  |  | > 1000 nM | ≥ 75% | O=C(OC(C(F)(F)F)C(F)(F)F)N1CCC2(CCN(Cc3ccc(C(F)(F)F)cc3N3CCCCC3)CC2)C1 [Example 187, 1,1,1,3,3,3-Hexafluoropropan-2-yl 8-(2-(piperidin-1-yl)-4-(trifluoromethyl)benzyl)-2,8-diazaspiro[4.5]decane-2-carboxylate]
7 | < 100 nM |  |  |  | > 1000 nM | ≥ 75% | O=C(OC(C(F)(F)F)C(F)(F)F)N1CCC2(CCN(Cc3ccc(C(F)(F)F)cc3N3CC4CCC(C3)O4)CC2)C1 [Example 190, 1,1,1,3,3,3-Hexafluoropropan-2-yl 8-(2-(8-oxa-3-azabicyclo[3.2.1]octan-3-yl)-4-(trifluoromethyl)benzyl)-2,8-diazaspiro[4.5]decane-2-carboxylate]
8 | < 100 nM |  |  |  | > 1000 nM | ≥ 75% | O=C(OC(C(F)(F)F)C(F)(F)F)N1CCC2(CCN(Cc3ccc(Cl)cc3N3CCCCC3)CC2)C1 [Example 191, 1,1,1,3,3,3-Hexafluoropropan-2-yl 8-(4-chloro-2-(piperidin-1-yl)benzyl)-2,8-diazaspiro[4.5]decane-2-carboxylate]
9 | < 100 nM |  |  |  | > 1000 nM | 25 to 75% | O=C(OC(C(F)(F)F)C(F)(F)F)N1CCC2(CCN(Cc3ccc(C(F)(F)F)cc3N3CCC(F)CC3)CC2)C1 [Example 192, 1,1,1,3,3,3-Hexafluoropropan-2-yl 8-(2-(4-fluoropiperidin-1-yl)-4-(trifluoromethyl)benzyl)-2,8-diazaspiro[4.5]decane-2-carboxylate]
10 | < 100 nM |  |  |  | > 1000 nM | ≤ 25% | CS(=O)(=O)N1CCC2(CCN(c3cc(C(F)(F)F)ccc3CN3CCN(C(=O)OC(C(F)(F)F)C(F)(F)F)CC3)C2)CC1 [Example 196, 1,1,1,3,3,3-Hexafluoropropan-2-yl 4-(2-(8-(methylsulfonyl)-2,8-diazaspiro[4.5]decan-2-yl)-4-(trifluoromethyl)benzyl)piperazine-1-carboxylate]
11 | < 100 nM |  |  |  | > 1000 nM | ≤ 25% | CC(=O)N1CCC2(CC1)CCN(c1cc(C(F)(F)F)ccc1CN1CCN(C(=O)OC(C(F)(F)F)C(F)(F)F)CC1)C2 [Example 197, 1,1,1,3,3,3-Hexafluoropropan-2-yl 4-(2-(8-acetyl-2,8-diazaspiro[4.5]decan-2-yl)-4-(trifluoromethyl)benzyl)piperazine-1-carboxylate]
12 | < 100 nM |  |  |  | > 1000 nM | ≥ 75% | CC(=O)N1CCC2(CC1)CN(c1cc(Cl)ccc1CN1CCN(C(=O)OC(C(F)(F)F)C(F)(F)F)CC1)C2 [Example 198, 1,1,1,3,3,3-Hexafluoropropan-2-yl 4-(2-(7-acetyl-2,7-diazaspiro[3.5]nonan-2-yl)-4-chlorobenzyl)piperazine-1-carboxylate]
13 | < 100 nM |  |  |  | > 1000 nM | ≥ 75% | CC(=O)N1CCC2(CC1)CN(c1cc(C(F)(F)F)ccc1CN1CCN(C(=O)OC(C(F)(F)F)C(F)(F)F)CC1)C2 [Example 199, 1,1,1,3,3,3-Hexafluoropropan-2-yl 4-(2-(7-acetyl-2,7-diazaspiro[3.5]nonan-2-yl)-4-(trifluoromethyl)benzyl)piperazine-1-carboxylate]
14 | < 100 nM |  |  |  | > 1000 nM | ≥ 75% | CS(=O)(=O)N1CC2(CCN(c3cc(C(F)(F)F)ccc3CN3CCN(C(=O)OC(C(F)(F)F)C(F)(F)F)CC3)CC2)C1 [Example 211, 1,1,1,3,3,3-Hexafluoropropan-2-yl 4-(2-(2-(methylsulfonyl)-2,7-diazaspiro[3.5]nonan-7-yl)-4-(trifluoromethyl)benzyl)piperazine-1-carboxylate]
15 | < 100 nM |  |  |  | > 1000 nM | ≥ 75% | CS(=O)(=O)N1CC2(CCN(c3cc(Cl)ccc3CN3CCN(C(=O)OC(C(F)(F)F)C(F)(F)F)CC3)CC2)C1 [Example 212, 1,1,1,3,3,3-Hexafluoropropan-2-yl 4-(4-chloro-2-(2-(methylsulfonyl)-2,7-diazaspiro[3.5]nonan-7-yl)benzyl)piperazine-1-carboxylate]
16 | < 100 nM |  |  |  | > 1000 nM | ≥ 75% | CC(=O)N1CC2(CCN(c3cc(Cl)ccc3CN3CCN(C(=O)OC(C(F)(F)F)C(F)(F)F)CC3)CC2)C1 [Example 213, 1,1,1,3,3,3-Hexafluoropropan-2-yl 4-(2-(2-acetyl-2,7-diazaspiro[3.5]nonan-7-yl)-4-chlorobenzyl) piperazine-1-carboxylate]
17 | < 100 nM |  |  |  | > 1000 nM | ≤ 25% | CS(=O)(=O)N1CCC2(CCN(c3cc(CN4CCCC45CN(C(=O)OC(C(F)(F)F)C(F)(F)F)C5)cc(C(F)(F)F)c3)CC2)C1 [Example 233, 1,1,1,3,3,3-Hexafluoropropan-2-yl 5-(3-(2-(methylsulfonyl)-2,8-diazaspiro[4.5]decan-8-yl)-5-(trifluoromethyl)benzyl)-2,5-diazaspiro[3.4]octane-2-carboxylate]
